From US9593149B2, “Amylin and calcitonin receptor agonist” (Novo Nordisk A/S, priority 2014, dated 2017)
≈ marks a conversion by molar mass, not a printed value. Numbered stars: 1 amine (or outer) side, 2 acyl side, 3 side chain; on linkers, the order of the positions; unused ones are H or OH. Square brackets hold non-standard residues; d marks the D form. Side chains are listed from the residue outwards. Peptide text beside a SMILES is read from it. * marks the point of attachment. C20 diacid = O=C(O)CCCCCCCCCCCCCCCCCCC(=O)*; γGlu = O=C(O)[C@H](CCC(=O)[*:2])N[*:1]

Tests used:
rat calcitonin receptor = target: T1, rat calcitonin receptor (Rattus norvegicus, UniProt P32214); assay: Assay (VIII) binding to the rat calcitonin receptor; conditions: membranes; read-out: rCT-R binding IC50
T1 construct: expressed in transfected cells; host or cells: BHK tk'ts 13 (transient, FuGENE 6)
T1 sequence (P32214 25-479 isoform P32214-2 limits assumed): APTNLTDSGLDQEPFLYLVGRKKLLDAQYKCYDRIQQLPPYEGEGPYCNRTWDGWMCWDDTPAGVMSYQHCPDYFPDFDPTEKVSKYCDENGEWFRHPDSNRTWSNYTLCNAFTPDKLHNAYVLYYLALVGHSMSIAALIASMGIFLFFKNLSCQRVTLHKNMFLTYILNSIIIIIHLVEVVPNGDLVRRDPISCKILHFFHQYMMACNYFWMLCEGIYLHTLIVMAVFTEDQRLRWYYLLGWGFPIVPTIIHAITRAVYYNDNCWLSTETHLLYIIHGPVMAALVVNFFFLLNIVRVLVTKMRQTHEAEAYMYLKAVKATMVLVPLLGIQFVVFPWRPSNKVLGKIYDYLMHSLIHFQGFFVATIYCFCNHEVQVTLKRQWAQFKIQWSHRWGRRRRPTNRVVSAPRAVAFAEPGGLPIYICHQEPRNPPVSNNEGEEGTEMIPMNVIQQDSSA
Procedure: The morning after, the plates were washed three times in HBSS (4° C.), and lyzed in Lysis buffer (0.1 M NaOH), 1% SDS. Scintillation cocktail (MicroScint40®) was added and the plates were shaken at 500 rpm for a short period. The plate was incubated at room temperature in the dark for 1 hour and Read on a TopCounter™ (Packard). The IC50 was calculated using (one site binding competition analysis) GraphPad Prism5 as a measure of receptor affinity. Assay (VIII)—Determination of Binding to the Rat Calcitonin Receptor
The assay was performed as described above (Assay (VII)—Determination of binding to the human calcitonin receptor) with the exception that we used membranes prepared from BHK tk'ts 13 cells that were transiently transfected with the rat calcitonin receptor. The BHK tk'ts 13 cells were transiently transfected with rat calcitonin receptor using FuGENE® 6 (Roche), according to the manufacturer's recommendations. Cells were grown in DMEM with 10% FBS and 1% Pen/Strep.

[1] = Assay (IV) determination of solubility; format: physicochemical
Procedure: Assay (IV)—Determination of Solubility
The mimylin peptide was dissolved in water at ˜500 nmol/ml and mixed 1:1 with a series of buffers (100 mM glycylglycine pH 3.0, 100 mM glycylglycine pH 4.0, 100 mM glycylglycine pH 5.0, 100 mM bistrispropane pH 6.0, 100 mM bistrispropane pH 6.5, 100 mM bistrispropane pH 7.0, 100 mM bistrispropane pH 7.5, 100 mM bistrispropane pH 8.0).

IC50 (rat calcitonin receptor) [nM]	Solubility ([1]; pH 3.0)	Solubility ([1]; pH 4.0)	Solubility ([1]; pH 5.0)	Solubility ([1]; pH 6.0)	Solubility ([1]; pH 6.5)	Solubility ([1]; pH 7.0)	Solubility ([1]; pH 7.5)	Solubility ([1]; pH 8.0)	solubility at 18 h ([1]; pH 5.0) [µM]	Structure (SMILES)
0.065	≧200 μM	≧200 μM	≧200 μM	≧200 μM	≧200 μM	≧200 μM	≧200 μM	≧200 μM	–	CC(C)C[C@H](NC(=O)[C@H](C)NC(=O)[C@H](C)NC(=O)[C@@H](NC(=O)[C@H](CO)NC(=O)[C@H](CC(C)C)NC(=O)[C@H](CCC(=O)O)NC(=O)[C@H](CO)NC(=O)[C@H](C)N)[C@@H](C)O)C(=O)NCC(=O)N[C@@H](CCCNC(=N)N)C(=O)N[C@@H](CC(C)C)C(=O)N[C@@H](CO)C(=O)N[C@@H](C)C(=O)N[C@@H](CCCCNC(=O)CC[C@H](NC(=O)CCCCCCCCCCCCCCCCCCC(=O)O)C(=O)O)C(=O)N[C@@H](CC(C)C)C(=O)N[C@@H](Cc1cnc[nH]1)C(=O)N[C@@H](CCC(=O)O)C(=O)N[C@@H](CC(C)C)C(=O)N[C@@H](C)C(=O)N[C@H](C(=O)N[C@@H](CC(C)C)C(=O)N1CCC[C@H]1C(=O)N[C@@H](CCCNC(=N)N)C(=O)N[C@H](C(=O)N[C@@H](CCC(=O)O)C(=O)N[C@H](C(=O)NCC(=O)N[C@@H](CO)C(=O)NCC(=O)N[C@@H](CO)C(=O)N1CCC[C@H]1C(N)=O)[C@@H](C)O)[C@@H](C)O)[C@@H](C)O [compound 53, [des1, 16K(C20 diacid-gGlu), 30S, 31G]mimylin] (H-ASELSTAALGRLSAK([γGlu-C20 diacid])LHELATLPRTETGSGSP-NH2)
0.044	≧200 μM	≧200 μM	≧200 μM	≧200 μM	≧200 μM	≧200 μM	≧200 μM	≧200 μM	–	CC(C)C[C@H](NC(=O)[C@H](C)NC(=O)[C@H](C)NC(=O)[C@@H](NC(=O)[C@H](CO)NC(=O)[C@H](CC(C)C)NC(=O)[C@H](CCC(=O)O)NC(=O)[C@H](CO)NC(=O)[C@H](C)N)[C@@H](C)O)C(=O)NCC(=O)N[C@@H](CCCNC(=N)N)C(=O)N[C@@H](CC(C)C)C(=O)N[C@@H](CO)C(=O)N[C@@H](C)C(=O)N[C@@H](CCC(=O)O)C(=O)N[C@@H](CC(C)C)C(=O)N[C@@H](Cc1cnc[nH]1)C(=O)N[C@@H](CCCCNC(=O)CC[C@H](NC(=O)CCCCCCCCCCCCCCCCCCC(=O)O)C(=O)O)C(=O)N[C@@H](CC(C)C)C(=O)N[C@@H](C)C(=O)N[C@H](C(=O)N[C@@H](CC(C)C)C(=O)N1CCC[C@H]1C(=O)N[C@@H](CCCNC(=N)N)C(=O)N[C@H](C(=O)N[C@@H](CCC(=O)O)C(=O)N[C@H](C(=O)NCC(=O)N[C@@H](CO)C(=O)NCC(=O)N[C@@H](CO)C(=O)N1CCC[C@H]1C(N)=O)[C@@H](C)O)[C@@H](C)O)[C@@H](C)O [compound 54, [des1, 19K(C20 diacid-gGlu), 30S, 31G]mimylin] (H-ASELSTAALGRLSAELHK([γGlu-C20 diacid])LATLPRTETGSGSP-NH2)
0.023	≧200 μM	≧200 μM	–	≧200 μM	≧200 μM	≧200 μM	≧200 μM	≧200 μM	73 (≈ 273 µg/mL)	CC(C)C[C@H](NC(=O)[C@H](C)NC(=O)[C@H](C)NC(=O)[C@@H](NC(=O)[C@H](CO)NC(=O)[C@H](CC(C)C)NC(=O)[C@H](CCC(=O)O)NC(=O)[C@H](CO)NC(=O)[C@H](C)NC(=O)CC[C@H](NC(=O)CCCCCCCCCCCCCCCCCCC(=O)O)C(=O)O)[C@@H](C)O)C(=O)NCC(=O)N[C@@H](CCCNC(=N)N)C(=O)N[C@@H](CC(C)C)C(=O)N[C@@H](CO)C(=O)N[C@@H](C)C(=O)N[C@@H](CCC(=O)O)C(=O)N[C@@H](CC(C)C)C(=O)N[C@@H](Cc1cnc[nH]1)C(=O)N[C@@H](CCC(=O)O)C(=O)N[C@@H](CC(C)C)C(=O)N[C@@H](C)C(=O)N[C@H](C(=O)N[C@@H](CC(C)C)C(=O)N1CCC[C@H]1C(=O)N[C@@H](CCCNC(=N)N)C(=O)N[C@H](C(=O)N[C@@H](CCC(=O)O)C(=O)N[C@H](C(=O)NCC(=O)N[C@@H](CO)C(=O)NCC(=O)N[C@@H](CO)C(=O)N[C@@H](Cc1ccc(O)cc1)C(N)=O)[C@@H](C)O)[C@@H](C)O)[C@@H](C)O [compound 59, [N-terminal(C20 diacid-gGlu), des1, 30S, 31G, 33Y]mimylin] ({C20 diacid-γGlu}-ASELSTAALGRLSAELHELATLPRTETGSGSY-NH2)
0.02	≧200 μM	≧200 μM	≧200 μM	≧200 μM	≧200 μM	≧200 μM	≧200 μM	≧200 μM	–	CC(C)C[C@H](NC(=O)[C@H](C)NC(=O)[C@H](C)NC(=O)[C@@H](NC(=O)[C@H](CO)NC(=O)[C@H](CC(C)C)NC(=O)[C@H](CCC(=O)O)NC(=O)[C@H](CO)NC(=O)[C@H](C)NC(=O)CC[C@H](NC(=O)CCCCCCCCCCCCCCCCCCC(=O)O)C(=O)O)[C@@H](C)O)C(=O)NCC(=O)N[C@@H](CCCNC(=N)N)C(=O)N[C@@H](CC(C)C)C(=O)N[C@@H](CO)C(=O)N[C@@H](C)C(=O)N[C@@H](CCC(=O)O)C(=O)N[C@@H](CC(C)C)C(=O)N[C@@H](Cc1cnc[nH]1)C(=O)N[C@@H](CCC(=O)O)C(=O)N[C@@H](CC(C)C)C(=O)N[C@@H](C)C(=O)N[C@H](C(=O)N[C@@H](CC(C)C)C(=O)N1CCC[C@H]1C(=O)N[C@@H](CCCNC(=N)N)C(=O)N[C@H](C(=O)N[C@@H](CCC(=O)O)C(=O)N[C@H](C(=O)NCC(=O)N[C@@H](CO)C(=O)NCC(=O)N[C@@H](CO)C(=O)N[C@@H](Cc1cnc[nH]1)C(N)=O)[C@@H](C)O)[C@@H](C)O)[C@@H](C)O [compound 60, [N-terminal(C20 diacid-gGlu), des1, 30S, 31G, 33H]mimylin] ({C20 diacid-γGlu}-ASELSTAALGRLSAELHELATLPRTETGSGSH-NH2)
0.017	≧200 μM	≧200 μM	≧200 μM	≧200 μM	≧200 μM	≧200 μM	≧200 μM	≧200 μM	–	CC(C)C[C@H](NC(=O)[C@H](C)NC(=O)[C@H](C)NC(=O)[C@@H](NC(=O)[C@H](CO)NC(=O)[C@H](CC(C)C)NC(=O)[C@H](CCC(=O)O)NC(=O)[C@H](CO)NC(=O)[C@H](C)NC(=O)CC[C@H](NC(=O)CCCCCCCCCCCCCCCCCCC(=O)O)C(=O)O)[C@@H](C)O)C(=O)NCC(=O)N[C@@H](CCCNC(=N)N)C(=O)N[C@@H](CC(C)C)C(=O)N[C@@H](CO)C(=O)N[C@H](CCC(=O)O)C(=O)N[C@@H](CCC(=O)O)C(=O)N[C@@H](CC(C)C)C(=O)N[C@@H](Cc1cnc[nH]1)C(=O)N[C@@H](CCC(=O)O)C(=O)N[C@@H](CC(C)C)C(=O)N[C@@H](C)C(=O)N[C@H](C(=O)N[C@@H](CC(C)C)C(=O)N1CCC[C@H]1C(=O)N[C@@H](CCCNC(=N)N)C(=O)N[C@H](C(=O)N[C@@H](CCC(=O)O)C(=O)N[C@H](C(=O)NCC(=O)N[C@@H](CO)C(=O)NCC(=O)N[C@@H](CO)C(=O)N1CCC[C@H]1C(N)=O)[C@@H](C)O)[C@@H](C)O)[C@@H](C)O [compound 67, [N-terminal(C20 diacid-gGlu), des1, 15e, 30S, 31G]mimylin] ({C20 diacid-γGlu}-ASELSTAALGRLS[dE]ELHELATLPRTETGSGSP-NH2)
